Assay results: patent publication US10221168B1, “Small-compound enhancers for functional O-mannosylation of alpha-dystroglycan, and uses thereof” (priority 2015, dated 2019)

Each compound was assayed on FOG of α-DG on the cell surfaces (assay: Cell-based HTS/HCS assay, IIH6 antibody as probe (EC1.5)). Conditions: concentration of the compound required to enhance the FOG of α-DG by 50% over the controls; cell-based assays in vitro.
From the text: Protein glycosylation is a multiple-step process that requires a large number of proteins in the secretory pathway of the cells. Thus we chose cell-based assay because our goal is to identify enhancer the FOG of α-DG on the cell surfaces. The assay system is HTS/HCS friendly and can adapt to various cell lines including myotubes as well as various readout methods including AlphaScreen, fluorescence density and HCS/fluorescence imaging. The standard operation protocol (SOP) for adhesion cells is described below and the FIG. 1 illustrates the assay process using myoblasts as the controls and screening cells and the IIH6 antibody as the probe. Other adhesion cells such CHO (Chinese hamster ovary) cell line can be implemented into this assay by simply removing the differentiation step.
Cell cultures: All cells are cultured at 37° C., 5% CO2, in appropriate media (F-12 for epithelial cells and DMEM for myoblasts) supplement with 10-20% fetal calf serum (FCS) and 1% antibiotics. […] The cells will be detached with trypsin EDTA and suspended in the cell culture media. The cells will be counted and seeded into the multiple-well plates as desired. Myotubes formation: When the myoblasts reach confluence, change the growth media to differential media (DEME with 2% horse serum) and incubate for 4-5 days.
The cells were fixed, permeablized, and then blocked with 10% BSA in PBS for 1 hour. […] After washing the cells with PBS for 2 times, the DAPI was used to stain the cells for 15 mins and wash 3 times with PBS. The images were captured with an inverted Olympus fluorescent microscope. For small compound localization experiment, the cells are incubated with the biotin conjugated compounds and then the cells were washed and incubated with streptavidin-Dye and then images will be captured to see the location of the compound-target-protein.
H, EC1.5<5 μM; M, EC1.5-20 μM; L, EC1.5 20-50 μM; VL, EC1.5>50 μM.

| Structure (SMILES) | Activity (EC1.5) |
| --- | --- |
| c1csc(Cn2nncc2CN2CCN(c3nc4ccccc4s3)CC2)c1 [Compound 1, 2-(4-((1-(thiophen-2-ylmethyl)-1H-1,2,3-triazol-5-yl)methyl)piperazin-1-yl)benzothiazole] | L (EC1.5 20-50 μM) |
| c1csc(Cn2nnnc2CN2CCN(c3nc4ccccc4s3)CC2)c1 [Compound 2, 2-(4-((1-(thiophen-2-ylmethyl)-1H-tetrazol-5-yl)methyl)piperazin-1-yl)benzothiazole] | M (EC1.5-20 μM) |
| CC(c1nnnn1Cc1cccs1)N1CCN(c2nc3ccccc3s2)CC1 (stereo not shown) [Compound 3, 2-(4-(1-(1-(thiophen-2-ylmethyl)-1H-tetrazol-5-yl)ethyl)piperazin-1-yl)benzothiazole] | M (EC1.5-20 μM) |
| CCC(c1nnnn1Cc1ccco1)N1CCC(c2nc3ccccc3s2)CC1 (stereo not shown) [Compound 4, 2-(1-(1-(1-(furan-2-ylmethyl)-1H-tetrazol-5-yl)propyl)piperidin-4-yl)benzothiazole] | M (EC1.5-20 μM) |
| CCC(c1nnnn1Cc1ccco1)N1CCN(c2nc3ccccc3s2)CC1 (stereo not shown) [Compound 5, 2-(4-(1-(1-(furan-2-ylmethyl)-1H-tetrazol-5-yl)propyl)piperazin-1-yl)benzothiazole] | M (EC1.5-20 μM) |
| CCC(c1nnnn1Cc1cccs1)N1CCN(c2nc3ccccc3s2)CC1 (stereo not shown) [Compound 6, 2-(4-(1-(1-(thiophen-2-ylmethyl)-1H-tetrazol-5-yl)propyl)piperazin-1-yl)benzothiazole] | M (EC1.5-20 μM) |
| CCC(c1nnnn1Cc1cccs1)N1CCN(c2nc3ccccc3o2)CC1 (stereo not shown) [Compound 7, 2-(4-(1-(1-(thiophen-2-ylmethyl)-1H-tetrazol-5-yl)propyl)piperazin-1-yl)benzoxazole] | M (EC1.5-20 μM) |
| CCC(c1nnnn1Cc1cccs1)N1CCC(c2nc3ccccc3s2)CC1 (stereo not shown) [Compound 8, 2-(1-(1-(1-(thiophen-2-ylmethyl)-1H-tetrazol-5-yl)propyl)piperidin-4-yl)benzothiazole] | M (EC1.5-20 μM) |
| CCC(c1nnnn1Cc1cccs1)N1CCN(c2nc3ccccc3[nH]2)CC1 (stereo not shown) [Compound 9, 2-(4-(1-(1-(thiophen-2-ylmethyl)-1H-tetrazol-5-yl)propyl)piperazin-1-yl)-1H-benzimidazole] | L (EC1.5 20-50 μM) |
| CCC(c1nnnn1Cc1cccs1)N1CCN(c2nc3ccc([N+](=O)[O-])cc3s2)CC1 (stereo not shown) [Compound 10, 6-nitro-2-(4-(1-(1-(thiophen-2-ylmethyl)-1H-tetrazol-5-yl)propyl)piperazin-1-yl)benzothiazole] | VL (EC1.5>50 μM) |
| CCC(c1nnnn1Cc1cccs1)N1CCN(c2nc3ccc(N)cc3s2)CC1 (stereo not shown) [Compound 11, 6-amino-2-(4-(1-(1-(thiophen-2-ylmethyl)-1H-tetrazol-5-yl)propyl)piperazin-1-yl)benzothiazole] | M (EC1.5-20 μM) |
| CCC(c1nnnn1Cc1cccs1)N1CCN(c2nc3ccc(NC(=O)CCCC[C@@H]4SC[C@@H]5NC(=O)N[C@@H]54)cc3s2)CC1 (stereo partly drawn) [Compound 12, 5-((3aS,4S,6aR)-2-oxohexahydro-1H-thieno[3,4-d]imidazol-4-yl)-N-(2-(4-(1-(1-(thiophen-2-ylmethyl)-1H-tetrazol-5-yl)propyl)piperazin-1-yl)benzothiazol-6-yl)pentanamide] | H (EC1.5<5 μM) |
| CCC(c1nnnn1Cc1cccs1)N1CCN(c2nc3ccc(F)cc3s2)CC1 (stereo not shown) [Compound 13, 6-fluoro-2-(4-(1-(1-(thiophen-2-ylmethyl)-1H-tetrazol-5-yl)propyl)piperazin-1-yl)benzothiazole] | L (EC1.5 20-50 μM) |
| CCC(c1nnnn1Cc1cccs1)N1CCN(c2nc3ccc(OC)cc3s2)CC1 (stereo not shown) [Compound 14, 6-methoxy-2-(4-(1-(1-(thiophen-2-ylmethyl)-1H-tetrazol-5-yl)propyl)piperazin-1-yl)benzothiazole] | M (EC1.5-20 μM) |
| CCC(c1nnnn1Cc1cccs1)N1CCN(c2nc3ccc(Cl)cc3s2)CC1 (stereo not shown) [Compound 15, 6-chloro-2-(4-(1-(1-(thiophen-2-ylmethyl)-1H-tetrazol-5-yl)propyl)piperazin-1-yl)benzothiazole] | M (EC1.5-20 μM) |
| CCC(c1nnnn1Cc1cccs1)N1CCN(c2nc3ccc(C)cc3s2)CC1 (stereo not shown) [Compound 16, 6-methyl-2-(4-(1-(1-(thiophen-2-ylmethyl)-1H-tetrazol-5-yl)propyl)piperazin-1-yl)benzothiazole] | L (EC1.5 20-50 μM) |

| Structure (SMILES) | Activity (EC1.5) |
| --- | --- |
| CCC(c1nnnn1Cc1cccs1)N1CCN(c2nc3ccc(-c4ccccc4)cc3s2)CC1 (stereo not shown) [Compound 17, 6-phenyl-2-(4-(1-(1-(thiophen-2-ylmethyl)-1H-tetrazol-5-yl)propyl)piperazin-1-yl)benzothiazole] | VL (EC1.5>50 μM) |
| CCC(c1nnnn1Cc1cccs1)N1CCN(c2nc3ccc(NC(=O)c4ccccc4Cl)cc3s2)CC1 (stereo not shown) [Compound 18, 2-chloro-N-(2-(4-(1-(1-(thiophen-2-ylmethyl)-1H-tetrazol-5-yl)propyl)piperazin-1-yl)benzothiazol-6-yl)benzamide] | VL (EC1.5>50 μM) |
| CCC(c1nnnn1Cc1cccs1)N1CCN(c2nc3ccc(NC(=O)c4ccccc4C)cc3s2)CC1 (stereo not shown) [Compound 19, 2-methyl-N-(2-(4-(1-(1-(thiophen-2-ylmethyl)-1H-tetrazol-5-yl)propyl)piperazin-1-yl)benzothiazol-6-yl)benzamide] | VL (EC1.5>50 μM) |
| CCC(c1nnnn1Cc1cccs1)N1CCN(c2nc3cc(OC)c(OC)c(OC)c3s2)CC1 (stereo not shown) [Compound 20, 5.6.7-trimethaxy-2-(4-(1-(1-(thiophen-2-ylmethyl)-1H-tetrarol-5-yl)propyl)piperazin-1-yl)benzothiazole] | M (EC1.5-20 μM) |
| CCC(c1nnnn1Cc1cccs1)N1CCN(c2nc3cccc(F)c3s2)CC1 (stereo not shown) [Compound 21, 7-fluoro-2-(4-(1-(1-(thiophen-2-ylmethyl)-1H-tetrazol-5-yl)propyl)piperazin-1-yl)benzothiazole] | H (EC1.5<5 μM) |
| CCC(c1nnnn1Cc1cccs1)N1CCN(c2nc3c([N+](=O)[O-])cccc3s2)CC1 (stereo not shown) [Compound 22, 4-nitro-2-(4-(1-(1-(thiophen-2-ylmethyl)-1H-tetrazol-5-yl)propyl)piperazin-1-yl)benzothiazole] | L (EC1.5 20-50 μM) |
| CCC(c1nnnn1Cc1cccs1)N1CCN(c2nc3c(N)cccc3s2)CC1 (stereo not shown) [Compound 23, 4-aminn-2-(4-(1-(1-(thiophen-2-ylmethyl) 1H-tetrazol-5-yl)propyl)piperazin-1-yl)benzothiazole] | M (EC1.5-20 μM) |
| CCC(c1nnnn1Cc1cccs1)N1CCN(c2nc3cccnc3s2)CC1 (stereo not shown) [Compound 24, 2-(4-(1-(1-(thiophen-2-ylmethyl)-1H-tetrazol-5-yl)propyl)piperazin-1-yl)thiazolo[5,4-b]pyridine] | M (EC1.5-20 μM) |
| CCC(c1nnnn1Cc1cccs1)N1CCN(c2nc3cc(F)ccc3s2)CC1 (stereo not shown) [Compound 25, 5-fluoro-2-(4-(1-(1-(thiophen-2-ylmethyl)-1H-tetrazol-5-yl)propyl)piperazin-1-yl)benzothiazole] | L (EC1.5 20-50 μM) |
| CCC(c1nnnn1Cc1cccs1)N1CCN(c2nc3cccc(C(F)(F)F)c3s2)CC1 (stereo not shown) [Compound 26, 2-(4-(1-(1-(thiophen-2-ylmethyl)-1H-tetrazol-5-yl)propyl)piperazin-1-yl)-7-(trifluoramethyl)benzothiazole] | L (EC1.5 20-50 μM) |
| CCC(NCCNc1nc2cccc(F)c2s1)c1nnnn1Cc1cccs1 (stereo not shown) [Compound 27, N^1-(7-fluorobenzothiazol-2-yl)-N^2-(1-(1-(thiophen-2-ylmethyl)-1H-tetrazol-5-yl)propyl)ethane-1,2-diamine] | M (EC1.5-20 μM) |
| CCC(c1nnnn1Cc1cccs1)N1CCN(c2nc3cc([N+](=O)[O-])ccc3s2)CC1 (stereo not shown) [Compound 28, 5-nitro-2-(4-(1-(1-(thiophen-2-ylmethyl)-1H-tetrazol-5-yl)propyl)piperazin-1-yl)benzothiazole] | M (EC1.5-20 μM) |
| CCC(c1nnnn1Cc1cccs1)N1CCN(c2nc3cc(N)ccc3s2)CC1 (stereo not shown) [Compound 29, 5-amino-2-(4-(1-(1-(thiophen-2-ylmpthyl)-1H-tetrazol-5-yl)propyl)piperazin-1-yl)benzothiazole] | H (EC1.5<5 μM) |
| CCC(c1nnnn1Cc1cccs1)N1CCN(c2nc3c(F)cccc3s2)CC1 (stereo not shown) [Compound 30, 4-fluoro-2-(4-(1-(1-(thiophen-2-ylmethyl)-1H-tetrazol-5-yl)propyl)piperazin-1-yl)benzothiazole] | H (EC1.5<5 μM) |
| CCC(c1nnnn1Cc1cccs1)N1CCN(c2nc3ccc(C(=O)OC)cc3s2)CC1 (stereo not shown) [Compound 31, methyl 2-(4-(1-(1-(thiophen-2-ylmethyl)-1H-tetrazol-5-yl)propyl)piperazin-1-yl)benzothiazole-6-carboxylate] | L (EC1.5 20-50 μM) |
